Experimental data taken from PubChem BioAssay AID1259407 (Chemical Carcinogenesis Research Information System (CCRIS), 2018).
The source made the active and inactive calls. How the calls were made is not given here.

Tested on: CCRIS mutagenicity, Ames/micronucleus/aberration tests
Test: CCRIS mutagenicity studies
[1] = Test System: AMES SALMONELLA TYPHIMURIUM, Strain/Indicator: TA98, Metabolic Activation: NONE, Method: STANDARD PLATE
[2] = Test System: AMES SALMONELLA TYPHIMURIUM, Strain/Indicator: TA98, Metabolic Activation: RAT, LIVER, S-9, AROCLOR 1254, Method: STANDARD PLATE
[3] = Test System: AMES SALMONELLA TYPHIMURIUM, Strain/Indicator: TA100, Metabolic Activation: NONE, Method: STANDARD PLATE
[4] = Test System: AMES SALMONELLA TYPHIMURIUM, Strain/Indicator: TA100, Metabolic Activation: RAT, LIVER, S-9, AROCLOR 1254, Method: STANDARD PLATE
[5] = Test System: AMES SALMONELLA TYPHIMURIUM, Strain/Indicator: TA1535, Metabolic Activation: NONE, Method: STANDARD PLATE
[6] = Test System: AMES SALMONELLA TYPHIMURIUM, Strain/Indicator: TA1535, Metabolic Activation: RAT, LIVER, S-9, AROCLOR 1254, Method: STANDARD PLATE
[7] = Test System: AMES SALMONELLA TYPHIMURIUM, Strain/Indicator: TA1537, Metabolic Activation: NONE, Method: STANDARD PLATE
[8] = Test System: AMES SALMONELLA TYPHIMURIUM, Strain/Indicator: TA1537, Metabolic Activation: RAT, LIVER, S-9, AROCLOR 1254, Method: STANDARD PLATE
[9] = Test System: AMES SALMONELLA TYPHIMURIUM, Strain/Indicator: TA98, Metabolic Activation: RAT, LIVER, S-9, AROCLOR 1254, Method: PREINCUBATION

Cc1ccc(C(=O)n2ncc(Cl)c(Cl)c2=O)cc1
mutagenic call [1]: inactive; negative | mutagenic call [2]: inactive; negative | mutagenic call [3]: inactive; negative | mutagenic call [4]: inactive; negative | mutagenic call [5]: inactive; negative | mutagenic call [6]: inactive; negative | mutagenic call [7]: inactive; negative | mutagenic call [8]: inactive; negative

N[C@@H](CCC(=O)N[C@@H](CSc1ccc([N+](=O)[O-])cc1[N+](=O)[O-])C(=O)NCC(=O)O)C(=O)O
mutagenic call (Test System: AMES SALMONELLA TYPHIMURIUM, Strain/Indicator: TA100(NR), Metabolic Activation: NONE, Method: PREINCUBATION): inactive; negative | mutagenic call (Test System: AMES SALMONELLA TYPHIMURIUM, Strain/Indicator: TA100/GSH-, Metabolic Activation: NONE, Method: PREINCUBATION): active; positive | mutagenic call (Test System: AMES SALMONELLA TYPHIMURIUM, Strain/Indicator: TA100, Metabolic Activation: NONE, Method: PREINCUBATION): inactive; negative

CCCCCNC(=O)/C=C/c1ccc([N+](=O)[O-])o1
mutagenic call (Test System: AMES SALMONELLA TYPHIMURIUM, Strain/Indicator: TA98, Metabolic Activation: NONE, Method: PREINCUBATION): active; positive

OCCNc1ccc(N=Nc2ccc(NCCO)cc2)cc1
mutagenic call (Test System: AMES SALMONELLA TYPHIMURIUM, Strain/Indicator: TA98, Metabolic Activation: HAMSTER, LIVER, S-9, AROCLOR 1254, Method: STANDARD PLATE): active; positive | mutagenic call [1]: inactive; negative | mutagenic call [9]: active; positive | mutagenic call [2]: active; positive | mutagenic call [3]: inactive; negative | mutagenic call [4]: inactive; negative | mutagenic call [5]: inactive; negative | mutagenic call [6]: inactive; negative | mutagenic call [7]: inactive; negative | mutagenic call [8]: inactive; negative | mutagenic call (Test System: AMES SALMONELLA TYPHIMURIUM, Strain/Indicator: TA1538, Metabolic Activation: NONE, Method: STANDARD PLATE): inactive; negative | mutagenic call (Test System: AMES SALMONELLA TYPHIMURIUM, Strain/Indicator: TA1538, Metabolic Activation: RAT, LIVER, S-9, AROCLOR 1254, Method: STANDARD PLATE): active; positive

O[C@H]1C=Cc2c(ccc3nc4ccc5ccccc5c4cc23)[C@@H]1O
mutagenic call (Test System: AMES SALMONELLA TYPHIMURIUM, Strain/Indicator: TA98, Metabolic Activation: GUINEA PIG, LIVER, S-9, 3-METHYLCHOLANTHRENE, Method: STANDARD PLATE): inactive; negative | mutagenic call (Test System: AMES SALMONELLA TYPHIMURIUM, Strain/Indicator: TA100, Metabolic Activation: GUINEA PIG, LIVER, S-9, 3-METHYLCHOLANTHRENE, Method: STANDARD PLATE): active; positive | mutagenic call (Test System: CHINESE HAMSTER V-79, Strain/Indicator: V-79/6-THIOGUANINE, Metabolic Activation: GUINEA PIG, LIVER, S-9, 3-METHYLCHOLANTHRENE): active; positive

OOC1CCCc2ccccc21 (stereo not drawn)
mutagenic call [1]: inactive; negative | mutagenic call [3]: active; positive | mutagenic call (Test System: AMES SALMONELLA TYPHIMURIUM, Strain/Indicator: TA102, Metabolic Activation: NONE, Method: STANDARD PLATE): inactive; negative

CC(C)OC(=O)c1cc(NC(=S)OC(C)C)ccc1Cl
mutagenic call (Test System: Mouse lymphoma, Strain/Indicator: L5178Y (tk+/tk-), Metabolic Activation: None, Method: Suspension/plate): inactive; negative | mutagenic call (Test System: Mouse lymphoma, Strain/Indicator: L5178Y (tk+/tk-), Metabolic Activation: Rat, Liver, S-9, Aroclor 1254, Method: Suspension/plate): inactive; negative

CCOP(=O)(OCC)Oc1ccc([N+](=O)[O-])cc1
mutagenic call (End Point: IN VITRO MICRONUCLEUS, Test System: HUMAN NEWBORN UMBILICAL CORD BLOOD, Metabolic Activation: NONE): active; positive only at highest dose | mutagenic call (End Point: IN VITRO MICRONUCLEUS, Test System: HUMAN PERIPHERAL LYMPHOCYTES (MALE/FEMALE ADULT), Metabolic Activation: NONE): active; positive only at highest dose | mutagenic call (End Point: In vitro micronucleus, Test System: Human peripheral blood lymphocytes, Metabolic Activation: None): active; positive. pon1 qq, but not pon1 rr individuals exhibited significant increase in | mutagenic call [1]: active; positive | mutagenic call (Test System: AMES SALMONELLA TYPHIMURIUM, Strain/Indicator: TA98, Metabolic Activation: RAT, LIVER, S-9, Method: STANDARD PLATE): active; positive | mutagenic call [3]: inactive; negative | mutagenic call (Test System: AMES SALMONELLA TYPHIMURIUM, Strain/Indicator: TA100, Metabolic Activation: RAT, LIVER, S-9, Method: STANDARD PLATE): active; positive

COc1ccc(-c2oc3ccccc3c(=O)c2N)cc1N
mutagenic call (Test System: AMES SALMONELLA TYPHIMURIUM, Strain/Indicator: TA100, Metabolic Activation: RAT LIVER S-9, AROCLOR 1254, Method: STANDARD PLATE): active; positive | mutagenic call (Test System: AMES SALMONELLA TYPHIMURIUM, Strain/Indicator: YG1042, Metabolic Activation: RAT LIVER S-9, AROCLOR 1254, Method: STANDARD PLATE): active; positive

Cc1cccc(NO)c1
mutagenic call [9]: inactive; negative | mutagenic call (Test System: AMES SALMONELLA TYPHIMURIUM, Strain/Indicator: TA100, Metabolic Activation: RAT, LIVER, S-9, PCB, Method: PREINCUBATION): active; positive
